# Where two headings read alike, the source gives them in different places.
# Columns and labels:
# [1] = tested on: MG-63 cells (osteosarcoma); test: cells; assay type: cell-based, human
# Experimental: Several human cell lines were used for the cytotoxic bioassays: non-cancer lung fibroblasts (WI-38), hepatocellular carcinoma (Hep-G2), osteosarcoma (MG-63) and the mouse monocyte macrophage J774. Cells were seeded into wells of a 96-well microplate in a Gibco™ Dulbecco’s modified eagles medium (DMEM), except for MG-63 which were cultivated in a minimum essential medium (MEM) (ThermoFisher Scientific, Illkirch-Graffenstaden, France). Both media were enriched with 10% FBS (ThermoFisher Scientific, France) and some antibiotics (mixture penicillin/streptomycin 100 UI/mL, Sigma Aldrich). After one or two days at 37 °C (5% of CO2), wells were emptied by suction. Cells were then treated with hops compounds (xanthohumol, desmethylxanthohumol, humulone, lupulone) in DMSO at 0.2% in the culture medium, to obtain a final volume of 100 µL in wells (negative control: 0.2% DMSO). Camptothecin was used as a positive control. After 48 to 72 h exposure, culture medium was replaced by 10% of Alamar blue or 3-(4,5-dimethylthiazol-2-yl)-2,5-diphenyltetrazolium bromide (MTT) in the medium (ThermoFisher Scientific®, Illkirch, France) and plates were incubated the time necessary to the reaction. Results were measured respectively by fluorescence (excitation 530 nm and emission 590 nm) or by optical density at 550 nm. The IC50 of each product was determined using GraphPad Prism (version 5.01).
# [2] = tested on: S. aureus T28.1 biofilm; test: Anti-biofilm: biofilm formation on synthetic bone substitute; assay type: cell-based, Staphylococcus aureus; conditions: at MIC
# Experimental: β-Tricalcium phosphate discs (Cerasorb®, Curasan, Germany) were used as bone substitute. Non-glucose enriched BHI medium was used here, because the bacterial glucose metabolism causes an acidification of the culture medium which leads to the disintegration of the discs. Discs were introduced in a 24-well plate: 1.8 mL of BHI media were added with 0.1 mL of product in DMSO (5%) and 0.1 mL of a 10^5 CFU/mL bacterial suspension. Final concentrations of hop phenolic compounds were from MIC/4 to 4 × MIC. After 24 h at 37 °C, counts were performed in two steps. First, planktonic bacteria were counted from 100 µL of the culture supernatant by plating tenfold dilutions on MHA. Then, bacteria adhering to the discs were counted: discs were removed and washed with a CR solution, then, 10 mL of CR were added to each disk and treated 1 min by sonication (35 kHz) and 30 s by vortex. The obtained suspension was enumerated as previously. The detection threshold was also 1 log(CFU/mL).
# [3] = tested on: S. aureus T28.1; test: Kill curves; assay type: cell-based, Staphylococcus aureus
# Experimental: This experiment allowed following in time the effect of the product on a growing bacterial population, highlighting the bactericidal or bacteriostatic effect. Stock solutions of xanthohumol, desmethylxanthohumol and lupulone were prepared in DMSO 20 times more concentrated than the desired final concentrations (MIC/4 to 4xMIC). An aliquot of 0.5 mL of purified product in DMSO was added to 8.5 mL of brain heart infusion (BHI) medium (Oxoid, UK). 1 mL of bacterial suspension at 10^5 CFU/mL was then introduced to the culture tube. A 5% DMSO control served as a negative control and was performed at each test. Culture tubes were incubated at 37 °C for 24 h. Counts were made every 2 h until 8 h and at 24 h by plating aliquots of serial tenfold dilutions on MHA. The determined bacterial concentrations were then converted into log(CFU/mL) and were expressed as a function of time. The detection threshold of this method was 10 CFU/mL and 1 log(CFU/mL) on graphics.
# [4] = tested on: MRSA strains; test: Broth microdilution MIC, range over strains; assay type: cell-based; conditions: Staphylococcus aureus, read-out: MICs towards MRSA strains
# Experimental: (§1) The protocol employed was inspired by Abedini et al. with some modifications. Products were solubilized in DMSO and serially diluted two-fold in MH medium. A bacterial suspension at 10^5 CFU/mL was added to obtain a final volume of 200 µL. Final phenolic product concentrations in wells ranged from 625 to 2.4 µg/mL (exception for lupulone for which dilutions were continued until 0.3 µg/mL). […] Plates were incubated overnight with stirring (60 rpm) at 37 °C.
# [5] = tested on: selected S. aureus strains; test: Broth microdilution MIC, range over strains; assay type: cell-based; conditions: Staphylococcus aureus; range over MRSA and MSSA strains of Table 3; read-out: MIC against selected S. aureus strains
# Experimental: as §1
# [6] = tested on: S. aureus T28.1 biofilm; test: Anti-biofilm: destruction of preformed biofilm on artificial surface; assay type: cell-based, Staphylococcus aureus
# Experimental: These experiments were inspired and adapted from Liu et al.. They were performed using a 96-well microplate with a flat bottom.
# The effect was also evaluated after the biofilm formation in order to evaluate if the hop phenolic compounds are able to destroy it. A first culture of 24 h at 37 °C with 190 µL of BHI medium and 10 µL of a 10^5 CFU/mL bacterial suspension allowed producing the biofilm. Wells were voided and washed with PBS. The biofilm was then treated with xanthohumol, desmethylxanthohumol or lupulone diluted at 5% in the BHI medium to obtain a final volume of 200 µL. Plates were incubated for 24 h at 37 °C, then voided and colored with crystal violet as above.
# [7] = tested on: lung cell line; parameters: method as in PMID 26664015; conditions: cited from earlier work
# [8] = tested on: mice; parameters: method as in PMID 20427021; conditions: approximately 1000 mg/kg of body weight of mice; cited from earlier work
# [9] = tested on: humans; parameters: method as in PMID 24038952; conditions: up to 180 mg in humans for a short intake; cited from earlier work
# [10] = tested on: biofilm formation; parameters: method as in PMID 24175280; conditions: at the MIC; cited from earlier work
# [11] = tested on: human hepatocellular carcinoma; parameters: method as in PMID 18814205; conditions: cited from earlier work
# [12] = tested on: Leishmania amazonensis; parameters: method as in PMID 27938439; conditions: cited from earlier work
# [13] = tested on: Plasmodium falciparum; parameters: method as in PMID 15824094; conditions: cited from earlier work
# [14] = Homo sapiens, MG-63, read-out: IC50 ± SD
# [15] = Homo sapiens, MG-63, value in parentheses, read-out: IC50 (converted)
compound,measurement,setting,value
"CC(C)=CCc1c(O)cc(O)c(C(=O)/C=C/c2ccc(O)cc2)c1O [DMX, desmethylxanthohumol]",IC50,[1]; [14],39.5 ± 3.3 µg/mL
same,IC50,[1]; [15],116 µM
same,Biofilm formation on bone substitute discs,[2],significant decrease
same,Bacterial population reached (detection threshold),"[3]; 2 × MIC, after 24 h",1 log(CFU/mL)
same,MIC,[4],19.5 to 39 µg/mL
same,MIC,[5],19.5 to 39 µg/mL
same,Biofilm destruction,[6]; MIC/4,81%
"COc1cc(O)c(CC=C(C)C)c(O)c1C(=O)/C=C/c1ccc(O)cc1 [XN, xanthohumol]",IC50,[7],~100 µg/mL
same,IC50,[1]; [14],10.4 ± 2.6 µg/mL
same,IC50,[1]; [15],29.4 µM
same,Safety in vivo,[8],good safety
same,Safety in vivo,[9],good safety
same,Inhibition of biofilm formation,[10],86.5%
same,IC50,[11],about 75 µg/mL
same,Decrease of the bacterial population,"[3]; 2xMIC, first 4 h",around 3 log(CFU/mL)
same,Decrease of the bacterial population,"[3]; MIC/2, first 6 h",0.5 log(CFU/mL)
same,Decrease of the bacterial population,"[3]; at the MIC, during 24 h",2 log(CFU/mL)
same,MIC,[4],9.8 to 19.5 µg/mL
same,MIC,[5],9.8 to 19.5 µg/mL
same,IC50,[12],in the µM range
same,IC50,[13],in the µM range
same,Biofilm destruction,[6]; at the MIC and above,non-dose-dependent activity
lupulone,cell viability,[1],~100%
same,IC50 ± SD,[1]; MG-63,4.3 ± 0.4 µg/mL
same,IC50,"[1]; MG-63, value in parentheses, read-out: IC50 (converted)",10.4 µM
same,selectivity index,[1]; antibacterial activity compared to cytotoxicity against MG-63,> 4
same,Biofilm formation on bone substitute discs,[2],significant decrease
same,Reduction between the control and 2 × MIC,[3]; 2 × MIC,about 3 log(CFU/mL)
same,Kill curve effect at 4 × MIC,[3]; 4 × MIC,slightly decreased the bacterial population
same,Biofilm destruction,[6]; MIC/4,62.8%

# Reference: publication PMC6472001, “Phenolic Compounds from Humulus lupulus as Natural Antimicrobial Products: New Weapons in the Fight against Methicillin Resistant Staphylococcus aureus, Leishmania mexicana and Trypanosoma brucei Strains” (Molecules, 2019)
